# Tests used:
# [1] = tested on: TNFα release from MonoMac-1 cells; assay: TNFα release from LPS/PMA-stimulated MonoMac-1 cells (ELISA); type: cell-based, human; settings: 22 hrs preincubation, then LPS and PMA 3 hours, FIG. 5D
# Description: To investigate whether the levels of TACE maturation observed in LoVo transfectants impacts TACE-related activities, we first measured cell-surface p75 TNF receptor expression as a marker for TACE cell-surface activity. Briefly, LoVo NEO and LoVo FUR2 cell samples were labeled with anti-TACE or anti-TNF p75 receptor antibodies (Catlag laboratories, Burlingame, Calif.) and cell fluorescence was analyzed on a FACScan (Becton Dickinson). […] Next, we measured the ability of Dec-RVKR-CH2Cl to block TNFα release from MonoMac-1 cells, a human monocytic cell line known to produce high levels of this cytokine (50). For this, MonoMac-1 cells were preincubated for 22 hrs with varying concentrations of Dec-RVKR-CH2Cl, then 500 ng/ml LPS and 100 ng/ml PMA were added. After 3 hours incubation with PMA and LPS, the supernatants were tested for TNF-α production using a TNF-α-specific ELISA assay (R&D Systems, Minneapolis, Minn.).
# [2] = tested on: proprotein convertases including furin, PC6B, PC3, PC2, PACE-4 and PC7; settings: cited from earlier work
# [3] = tested on: TACE maturation in LoVo NEO cells; assay: TACE maturation in LoVo NEO cells by Western blotting; type: cell-based, human; settings: 24 hrs, various concentrations, FIG. 5B
# Text: To assess the involvement of furin in TACE endoproteolytic processing, applicant first used a furin-deficient cell line, the LoVo cells. These are human colon carcinoma cells which have a point mutation in both alleles of the fur gene leading to production of a defective enzyme (reference 46). These furin knock-out cells have been extensively used to study the contribution of furin in a cellular context (references 10, 38 and 47). LoVo cells were transfected with wild type furin and two stable transfectants LoVoFUR1 and LoVoFUR2 and control transfectant LoVoNEO have been generated accordingly to their acquired gentamycin resistance. Cell lysates were assessed by Western blotting for the production of TACE proteolytic fragments in immunoblotting using TACE-specific antibodies (Chemicon International, CA). […]
# To define if proprotein convertases other than furin are involved in TACE maturation, LoVo NEO cells were incubated for 24 hrs in the presence of Dec-RVKR-CH2Cl, a synthetic peptide that mimics proprotein recognition site. […] LoVo NEO cells were incubated for 24 hrs in the presence of various concentrations of Dec-RVKR-CH2Cl, and cell lysates were assessed for TACE maturation by Western blotting as described above.
substance,measurement,setting,value
Dec-RVKR-CH2Cl,TNFα released,[1],blocked almost completely
same,inhibition of enzymatic activity of proprotein convertases,[2],efficiently inhibit
same,TACE maturation,[3],further inhibition of TACE maturation

# Reference: patent US20040127396A1, “Use of furin and furin-like protease inhibitors in the treatment of inflammatory or matrix remodelling diseases” (priority 2000, published 2004)
